From patent publication US20130303562A1, “CHEMICAL AND RNAI SUPPRESSORS OF NEUROTOXICITY IN HUNTINGTON'S DISEASE” (priority 2010, published 2013)

How the values were obtained:
gap junction = details: cited from earlier work
[1] = system: subject carrying a polyQ tract expansion mutation in the Huntingtin gene; assay: Carbenoxolone in pre-symptomatic HD patients; assay type: in vivo, human; details: administered before clinical symptoms manifest, from about 150 mg/day
Method: After a period of time sufficient for a change in a cortisol level to manifest, e.g. after about a week, about two weeks, about three weeks, or about a month, the cortisol level in the subject is measured. […] For example, in some embodiments, the dose may be increased from about 150 mg/day to about 300 mg/day. In some embodiments, the cortisol level in the subject is measured again after dose adjustment and, if the cortisol level remains elevated, the dose is increased further. For example, in some embodiments, the dose may be increased from about 300 mg/day to about 450 mg/day. In some embodiments, multiple cycles of dose adjustment and cortisol level measurement are performed until a desired cortisol level is observed in the subject, for example, a blood plasma cortisol level within the range of 70-700 nmol/l or 70-350 nmol/l. For example, in some embodiments, the dose may be increased from about 150 mg/day to about 300 mg/day in a first dose adjustment, then to about 450 mg/day, then to about 500 mg/day, then to about 600 mg/day. […] In some cases, the dosage may be decreased below 150 mg/day, particularly, where a desired reduction in a cortisol level is still observed with lower doses. […]

HD model strain mice = assay: Rotarod assay in HD model strain mice; assay type: in vivo, mouse; details: treated from 4 weeks, tested at 8 weeks of age, vs untreated HD mice
Text: Mouse strains: Mouse strain names provided herein adhere to the Guidelines for Nomenclature of Mouse and Rat Strains, Revised October 2011, International Committee on Standardized Genetic Nomenclature for Mice, accessible at www.informatics.jax.org/mgihome/nomen/strains.shtml. Official gene symbols, or, where appropriate, official mouse strain names of the Jackson Laboratory (www.jax.org, e.g., the Jackson Laboratory Mice Database at jaxmice.jax.org) are used. […]
Rotarod assay: Mice are habituated to balancing on a slowly rotating rotarod (5 rpm). […] The time to fall off the rod, onto a platform located ˜30 cm below the rod, is measured. The increase in latency to fall during the course of training is compared between four groups of mice for each candidate compound to be evaluated (Mutant+candidate, mutant no candidate, wild type+candidate, wild type no candidate). […]
At 8 weeks of age, motor and cognitive performance are tested in rotarod and water maze assays. Untreated mice are expected to show a significant impairment of motor and cognitive capabilities at 8 weeks of age, as measured by a shortened latency to fall in the rotarod assay, and a lengthened latency to escape in the water maze assy, respectively, as compared to wid type control mice.

[2] = system: HD larvae (Elav^c155-GAL4; UAS-Htt-Q138/+); assay: In vivo rescue: viability of HD larvae after 5-day drug dosing in liquid culture; parameters: species or system Drosophila; details: larvae reared in liquid culture, 5-day dosing, compared to DMSO-treated controls
Method: In vivo Rescue studies: For small molecule in vivo rescue studies, Elav^c155; UAS-Htt-Q138-mRFP^1, UAS-mCD8-GFP/+1st instar larvae were collected en-masse and dispensed into liquid yeast media (10 larvae/well) containing therapeutic agents at three different concentrations as described in the results (n=8 replicas/concentration). Cultures were reared at 21° C. and larval viability was assessed after 5 days and the mean number of living Htt138Q larvae (i.e. GFP^+, Htt138QmRFP^+, and mobile) was tabulated, and expressed as a percentage of total larvae/well. For genetic rescue studies with lkb1, two Htt138Q strains were utilized: a strong expressing line, UAS-Htt138QmRFP^1 which is pharate lethal when crossed to Elav^c155, and a weaker expressing line, UAS-Htt138QmRFP^2 which survives to adulthood and is viable for a number of weeks. Using the strong line, pharate lethality at 25° C. was calculated after lkb1 (lkb1^4B1-11 and lkb1^4A4-2 alleles) was introduced into an Elav^c155, UAS-Htt/+background. Lkb1^4B1-11 is a premature truncation allele (Q98>Stop), and lkb1^4A4-2 is an EMS null allele (589 b.p. deletion removing 150 b.p. of the 5′ UTR, the start codon and the beginning of the open reading frame). For Top1 in vivo analysis, Elav^c155, Top^112 recombinants were generated and crossed to UAS-Htt138QmRFP^1.
To further examine the RNAi/small molecule screen hits, we assayed in vivo efficacy by testing their ability to rescue lethality in our Drosophila HD model. […] Specific inhibitors of Lkb1 were not available for in vivo testing.

CC1(C)[C@@H](OC(=O)CCC(=O)O)CC[C@]2(C)[C@H]3C(=O)C=C4[C@@H]5C[C@@](C)(C(=O)O)CC[C@]5(C)CC[C@@]4(C)[C@]3(C)CC[C@@H]12 [Carbenoxolone]
Gap junction activity (gap junction): block gap junction activity
Onset and severity of HD symptoms [1]: prevention or delay of the onset, and/or an amelioration of the severity of at least one HD symptom
Impairment of motor capabilities (latency to fall, rotarod) (HD model strain mice): lesser degree of impairment
Viability of Htt-Q138 expressing larvae / rescue of Htt-Q138 lethality [2]: comparable activity
Viability of Htt-Q138 expressing larvae / rescue of Htt-Q138 lethality ([2]; listed as carbenoxolone): rescue HD toxicity in vivo
